Results on ten compounds are retold here after PMC5797126, “Identification of influenza polymerase inhibitors targeting C-terminal domain of PA through surface plasmon resonance screening” (Scientific Reports, 2018).

As usually defined, the IC50 is the midpoint of a concentration-inhibition curve. Usually Kd stands for the free concentration of one partner at which half of the binding sites on the other are occupied at equilibrium, for simple one-to-one binding. A low value points to a tighter complex.

The nature of data set [1]: in vitro. To be noted: human.
A further data set deals with influenza RNP (Influenza A virus, UniProt P15659). The data set can be described thus: cell-based.
The subject of data set [2] is influenza virus (A/WSN/33). Kind of data set: microbe, parasite or virus in culture. The class given is cell-based. Conditions: for IC50: unidentified influenza virus, WSN, MDCK, 24 h, read-out: Viral Yield Reduction Assay IC50.
Data set [3] is described as follows: in vitro. To be noted: dog.
For data set [4], the target named is PAC (C-terminal domain of PA, residues 256–716 of A/WSN/33) (Influenza A virus, UniProt P15659). The data set can be described thus: biochemical. The class given is binding, influenza A/WSN/33.

Turning to `O=c1c2ccccc2nc(NCCN2CCNCC2)n1-c1ccccc1` [Compound S1a, 2-[(2-(Piperazino)ethyl)amino]-3-phenylquinazolin-4(3H)-one], in “in vitro [1]”, the CC50 at 24 h is more than 100 µM.

Regarding `Cc1ccccc1-n1c(NCCCN2CCOCC2)nc2ccccc2c1=O` [Compound S1b, 2-[(3-Morpholinopropyl)amino]-3-(2-methylphenyl)quinazolin-4(3H)-one], the IC50 against influenza RNP was 87.8 ± 21.8 µM; in data set [2] it was more than 100 µM. Also, the CC50 at 24 h in the data set “in vitro [1]” and in “in vitro [3]” was more than 100 µM in each case.

For the compound `Cc1ccc(-n2c(NCCCN3CCOCC3)nc3ccccc3c2=O)cc1` [Compound S1c, 2-[(3-Morpholinopropyl)amino]-3-(4-methylphenyl)quinazolin-4(3H)-one], the CC50 at 24 h in “in vitro [1]” is more than 100 µM.

As to `O=c1c2ccccc2nc(NCCCN2CCOCC2)n1-c1ccc(F)cc1` [Compound S1d, 3-(4-Fluorophenyl)-2-((3-morpholinopropyl)amino)quinazolin-4(3H)-one], the CC50 at 24 h in the data set “in vitro [1]” is more than 100 µM.

Take `O=c1c2c(O)c(Cc3ccccc3)c(=O)n(CCO)c2n(-c2ccccc2)c(=O)n1-c1ccccc1` [Compound S2a, 6-benzyl-5-hydroxy-8-(2-hydroxyethyl)-1,3-diphenylpyrido[2,3-d]pyrimidine-2,4,7(1H,3H,8H)-trione]: the 50% inhibitory concentration (IC50) was 9.69 ± 3 µM against influenza RNP and 7.74 ± 6.02 µM in data set [2]. Further, the “inhibition of influenza viral yield (in words)” value (“inhibition” below) in data set [2] is “dose-dependent inhibition of influenza virus”. This compound registered a dissociation constant (Kd) in data set [4] of 1.77 ± 0.78 µM. Moreover, the “cytotoxicity in MDCK cells (in words)” value in the data set with MDCK cells is recorded as “slight cytotoxicity at their highest tested concentration”. In addition, the CC50 at 24 h is 84.6 ± 17.3 µM in “in vitro [1]” and more than 100 µM in “in vitro [3]”.

As for `CC(c1ccccc1)c1c(O)c2c(=O)n(-c3ccccc3)c(=O)n(-c3ccccc3)c2[nH]c1=O` (centres unmarked) [Compound S2b, 5-hydroxy-1,3-diphenyl-6-(1-phenylethyl)pyrido[2,3-d]pyrimidine-2,4,7(1H,3H,8H)-trione], the 50% inhibitory concentration (IC50) came to 14.2 ± 3.6 µM on influenza RNP and 4.96 ± 3.84 µM in data set [2]. Moreover, the “inhibition” value in data set [2] is reported as “dose-dependent inhibition of influenza virus”. In data set [4], this compound displayed a Kd of 16.2 ± 8.3 µM. Also, the CC50 at 24 h in “in vitro [1]” was more than 100 µM; in the data set “in vitro [3]” it was 42.8 ± 9 µM.

The compound `CC(c1ccccc1)c1c(O)c2c(=O)n(-c3ccccc3)c(=O)n(-c3ccccc3)c2n(C)c1=O` (centres unmarked) [Compound S2c, 5-hydroxy-8-methyl-1,3-diphenyl-6-(1-phenylethyl)pyrido[2,3-d]pyrimidine-2,4,7(1H,3H,8H)-trione] showed a CC50 at 24 h in “in vitro [1]” of 97.1 ± 16.1 µM.

Turning to `COc1c(C(C)c2ccccc2)c(=O)n(C)c2c1c(=O)n(-c1ccccc1)c(=O)n2-c1ccccc1` (centres unmarked) [Compound S2d, 5-methoxy-8-methyl-1,3-diphenyl-6-(1-phenylethyl)pyrido[2,3-d]pyrimidine-2,4,7(1H,3H,8H)-trione], the IC50 on influenza RNP was more than 12.5 µM; in data set [2] it was 3.18 ± 2.44 µM. The “inhibition” value in data set [2] is listed as “dose-dependent inhibition of influenza virus”. The compound also had a dissociation constant (Kd) in data set [4] of more than 25 µM. Also, the results for the CC50 at 24 h in “in vitro [1]” and in “in vitro [3]” were 66.6 ± 6.09 µM and 35.6 ± 9.24 µM, respectively.

For the compound `CC(=O)n1c(=O)c(C(C)c2ccccc2)c(O)c2c(=O)n(-c3ccccc3)c(=O)n(-c3ccccc3)c21` (centres unmarked) [Compound S2e, 8-acetyl-5-hydroxy-1,3-diphenyl-6-(1-phenylethyl)pyrido[2,3-d]pyrimidine-2,4,7(1H,3H,8H)-trione], the IC50 is 6.69 ± 7.49 µM against influenza RNP and 5.11 ± 4.22 µM in data set [2]. Further, in data set [2], the “inhibition” value was “dose-dependent inhibition of influenza virus”. This compound also returned a dissociation constant (Kd) in data set [4] of 50.9 ± 25.5 µM. Also, the figures for the CC50 at 24 h in “in vitro [1]” and in the data set “in vitro [3]” were more than 100 µM and 53.1 ± 9.25 µM, respectively.

Take `Cn1c(=O)c(Nc2ccccc2)c(O)c2c(=O)n(-c3ccccc3)c(=O)n(-c3ccccc3)c21` [Compound S2f, 5-hydroxy-8-methyl-1,3-diphenyl-6-(phenylamino)pyrido[2,3-d]pyrimidine-2,4,7(1H,3H,8H)-trione]: the IC50 was 62.4 ± 22.4 µM on influenza RNP and more than 100 µM in data set [2]. For the same compound, the “inhibition” value in data set [2] is “inability to attenuate influenza virus”. The CC50 at 24 h in the data set “in vitro [1]” and in the data set “in vitro [3]” was more than 100 µM each time.
